Source: patent US20210070747A1, “2(1H)-QUINOLINONE DERIVATIVE” (priority 2017, published 2021)
≈ marks a conversion by molar mass, not a printed value. Where a name gives a salt, the structure may show the parent alone. Read-outs that look alike come from different tables or passages of the source.

Tests used:
[1] = target: T1, E. coli DNA gyrase (Escherichia coli, UniProt P0AES6); assay: Test for evaluating the activity of inhibiting E. coli DNA gyrase enzyme (Method 1, supercoiling, Inspiralis enzyme); type: biochemical
T1 construct: made in house; host or cells: E. coli BL21 (DE3)
Protocol: Test Example 1-1 Test for Evaluating the Activity of Inhibiting E. coli DNA Gyrase Enzyme (Method 1)
The enzymatic activity of E. coli DNA gyrase was measured by a method comprising reacting DNA gyrase and its substrate, relaxed pBR322 (Inspiralis), in the presence of ATP and detecting the post-reaction supercoiled pBR322/relaxed pBR322 ratio with H19 (Profoldin).
Specifically, to 1 ng/μL of relaxed pBR322, E. coli DNA gyrase enzyme (Inspiralis) was added at a final concentration of 0.006 U/μL and the mixture was incubated for 60 minutes at room temperature. This reaction was carried out in 20 mmol/L tris-HCl buffered solution (pH 8.0) comprising 0.5 mmol/L ATP, 0.005% bridge 35, 35 mmol/L ammonium acetate, 8 mmol/L magnesium chloride, 4.6% glycerol, and 1 mmol/L dithiothreitol. To the reaction mixture, H19 was added to bring the reaction to an end; thereafter, the supercoiled pBR322/relaxed pBR322 ratio was detected at excitation wavelength/emission wavelength=485 nm/535 nm. An inhibition curve was obtained by allowing the analyte compound to be present at varying concentrations during the reaction described above. […] The test results of interest are shown in [Table 20-1] and [Table 20-2].

[2] = test system: E. Coli ATCC 25922; assay: Test for evaluating antibacterial activity (E. coli), broth microdilution MIC; type: cell-based; settings: Escherichia coli, ATCC25922; 35° C., 18 hours, cation-adjusted Mueller-Hinton medium
Procedure, shortened: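 Broth microdilution per modified CLSI method in cation-adjusted Mueller-Hinton medium. Inoculum from overnight heart infusion agar growth, McFarland 0.5 suspension diluted 10-fold; incubation 35° C for 18 hours. MIC taken as lowest drug concentration with no visible growth.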

[3] = Method 1, read-out: E. Coli Gyrase supercoiling IC50

Row | SMILES | IC50 [1, 3] | MIC [2] | further results
1 | CNc1cccc2cc(C(=O)NC3CCN(c4ncc(C(=O)O)s4)C3)c(=O)[nH]c12 (stereo not drawn) [Example 9, 2-(3-{[8-(methylamino)-2-oxo-1,2-dihydroquinoline-3-carbonyl]amino}pyrrolidine-1-yl)-1,3-thiazole-5-carboxylic acid] | 51.7 nM | > 64 µg/mL | 
2 | CNc1cccc2cc(C(=O)NC3CN(c4ncc(C(=O)O)s4)C3)c(=O)[nH]c12 [Example 10, 2-(3-{[8-(methylamino)-2-oxo-1,2-dihydroquinoline-3-carbonyl]amino}azetidine-1-yl)-1,3-thiazole-5-carboxylic acid] | 459 nM | > 64 µg/mL | 
3 | CNc1cccc2cc(C(=O)Nc3ccccc3)c(=O)[nH]c12 [Example 11, 8-(methylamino)-2-oxo-N-phenyl-1,2-dihydroquinoline-3-carboxamide] | 245 nM | > 64 µg/mL | 
4 | CNc1cccc2cc(C(=O)Nc3cncnc3)c(=O)[nH]c12 [Example 12, 8-(methylamino)-2-oxo-N-(pyrimidine-5-yl)-1,2-dihydroquinoline-3-carboxamide] | 21.1 nM | > 64 µg/mL | 
5 | CNc1cccc2cc(C(=O)Nc3cccnc3)c(=O)[nH]c12 [Example 15, 8-(methylamino)-2-oxo-N-(pyridine-3-yl)-1,2-dihydroquinoline-3-carboxamide] | 35.9 nM | > 64 µg/mL | 
6 | CNc1cccc2cc(C(=O)Nc3cnc(C(=O)O)nc3)c(=O)[nH]c12 [Example 20, 5-{[8-(methylamino)-2-oxo-1,2-dihydroquinoline-3-carbonyl]amino}pyrimidine-2-carboxylic acid] | 1.19 nM | > 16 µg/mL | 
7 | CNc1cccc2cc(C(=O)NCc3ccccn3)c(=O)[nH]c12 [Example 21, 8-(methylamino)-2-oxo-N-[(pyridine-2-yl)methyl]-1,2-dihydroquinoline-3-carboxamide] |  |  | inhibition at 3 µM ([1]; Method 1, at 3000 nM): 44%
8 | CNc1cccc2cc(C(=O)NC3CCN(c4nccs4)C3)c(=O)[nH]c12 (stereo not drawn) [Example 23, 8-(methylamino)-2-oxo-N-[1-(1,3-thiazole-2-yl)pyrrolidine-3-yl]-1,2-dihydroquinoline-3-carboxamide] | 697 nM | > 4 µg/mL | 
9 | CNc1cccc2cc(C(=O)Nc3cnc(NC(=O)OC(C)(C)C)s3)c(=O)[nH]c12 [Example 24, tert-butyl(5-{[8-(methylamino)-2-oxo-1,2-dihydroquinoline-3-carbonyl]amino}-1,3-thiazole-2-yl)carbamate] | 641 nM | > 32 µg/mL | 
10 | CNc1cccc2cc(C(=O)Nc3cnc(N)s3)c(=O)[nH]c12.Cl [Example 25, N-(2-Amino-1,3-thiazol-5-yl)-8-(methylamino)-2-oxo-1,2-dihydroquinoline-3-carboxamide-hydrochloride] |  | > 16 µg/mL | IC50 [1]: 65.4 nM
11 | CNc1cccc2cc(C(=O)Nc3ccc(C(=O)NCCN4CCOCC4)cc3)c(=O)[nH]c12 [Example 26, 8-(methylamino)-N-(4-{[2-(morpholine-4-yl)ethyl]carbamoyl}phenyl)-2-oxo-1,2-dihydroquinoline-3-carboxamide] | 17.8 nM | > 32 µg/mL | 
12 | CNc1cccc2cc(C(=O)NCc3csc(NC(=O)OC(C)(C)C)n3)c(=O)[nH]c12 [Example 27, tert-butyl[4-({[8-(methylamino)-2-oxo-1,2-dihydroquinoline-3-carbonyl]amino}methyl)-1,3-thiazole-2-yl]carbamate] | 258 nM | > 8 µg/mL | 
13 | CNc1cccc2cc(C(=O)NCCc3cccnc3)c(=O)[nH]c12 [Example 30, 8-(methylamino)-2-oxo-N-[2-(pyridine-3-yl)ethyl]-1,2-dihydroquinoline-3-carboxamide] | 216 nM | > 16 µg/mL | 
14 | CNc1cccc2cc(C(=O)NCc3csc(N)n3)c(=O)[nH]c12.Cl [Example 31, N-[(2-amino-1,3-thiazole-4-yl)methyl]-8-(methylamino)-2-oxo-1,2-dihydroquinoline-3-carboxamide-hydrochloride] |  | > 16 µg/mL | IC50 [1]: 321 nM
15 | CNc1cccc2cc(C(=O)Nc3cnc(N4CCC(N5CCN(CCO)CC5)CC4)nc3)c(=O)[nH]c12 [Example 42, N-(2-{4-[4-(2-hydroxyethyl)piperazine-1-yl]piperidine-1-yl}pyrimidine-5-yl)-8-(methylamino)-2-oxo-1,2-dihydroquinoline-3-carboxamide] | 73.6 nM | > 64 µg/mL | 
16 | CNc1cccc2cc(C(=O)Nc3ccc(C(=O)N4CCOCC4)cc3)c(=O)[nH]c12 [Example 43, 8-(methylamino)-N-[4-(morpholine-4-catbonyl)phenyl]-2-oxo-1,2-dihydroquinoline-3-carboxamide] | 176 nM | > 32 µg/mL | 
17 | CNc1cccc2cc(C(=O)Nc3ccc(C(=O)O)cc3OCCN3CCN(C)CC3)c(=O)[nH]c12.Cl [Example 44, 4-{[8-(methylamino)-2-oxo-1,2-dihydroquinoline-3-carbonyl]amino}-3-[2-(4-methylpiperazine-1-yl)ethoxy] benzoic acid-hydrochloride] |  | > 16 µg/mL | IC50 [1]: 373 nM
18 | CNc1cccc2cc(C(=O)Nc3cnc(N4CCC(N)CC4)nc3)c(=O)[nH]c12.O=CO [Example 45, N-[2-(4-aminopiperidine-1-yl)pyrimidine-5-yl]-8-(methylamino)-2-oxo-1,2-dihydroquinoline-3-carboxamide-formate] |  | > 16 µg/mL | IC50 [1]: 101 nM
19 | CNc1cccc2cc(C(=O)Nc3ccc(C(=O)NCCCN)cc3)c(=O)[nH]c12.Cl [Example 46, N-{4-[(3-aminopropyl)carbamoyl]phenyl}-8-(methylamino)-2-oxo-1,2-dihydroquinoline-3-carboxamide-hydrochloride] |  | > 1 µg/mL | IC50 [1]: 7.47 nM
20 | CNc1cccc2cc(C(=O)Nc3ccc(C(=O)NCC4CCNCC4)cc3)c(=O)[nH]c12.O=CO [Example 47, 8-(methylamino)-2-oxo-N-(4-{[(piperidine-4-yl)methyl]carbamoyl}phenyl)-1,2-dihydroquinoline-3-carboxamide-formate] |  | > 32 µg/mL | IC50 [1]: 10.7 nM
21 | CNc1cccc2cc(C(=O)Nc3ccc(C(=O)O)cc3OCCCN)c(=O)[nH]c12.O=CO [Example 48, 3-(3-aminopropoxy)-4-{[8-(methylamino)-2-oxo-1,2-dihydroquinoline-3-carbonyl]amino} benzoic acid-formate] |  | > 16 µg/mL | IC50 [1]: 286 nM
22 | CNc1cccc2cc(C(=O)Nc3ccc(C(=O)NCCC[C@H](N)C(=O)O)cc3)c(=O)[nH]c12 [Example 49, N5-(4-{[8-(methylamino)-2-oxo-1,2-dihydroquinoline-3-carbonyl]amino}benzoyl)-L-ornithine] | 20.4 nM | > 8 µg/mL | 
23 | CNc1cc(F)cc2cc(C(=O)Nc3cnc(NCCN4CCN(C)CC4)nc3)c(=O)[nH]c12 [Example 51, 6-fluoro-8-(methylamino)-N-(2-{[2-(4-methylpiperazine-1-yl)ethyl]amino}pyrimidine-5-yl)-2-oxo-1,2-dihydroquinoline-3-carboxamide] | 5.46 nM | 16 µg/mL (≈ 35.2 µM) | 
24 | CNc1cc(F)cc2cc(C(=O)Nc3cnc(C(=O)NCCN4CCOCC4)nc3)c(=O)[nH]c12 [Example 53, 6-fluoro-8-(methylamino)-N-(2-{[2-(morpholine-4-yl)ethyl]carbamoyl}pyrimidine-5-yl)-2-oxo-1,2-dihydroquinoline-3-carboxamide] | 1.49 nM | 0.25 µg/mL (≈ 0.533 µM) | 
25 | CNc1cc(F)cc2cc(C(=O)Nc3cnc(N4CCNCC4)nc3)c(=O)[nH]c12.Cl [Example 55, 6-Fluoro-8-(methylamino)-2-oxo-N-[2-(piperazin-1-yl)pyrimidin-5-yl]-1,2-dihydroquinoline-3-carboxamide-hydrochloride] |  | > 16 µg/mL | IC50 [1]: 14.7 nM
26 | CNc1cc(F)cc2cc(C(=O)Nc3ccc(C(=O)NCC4CCN(CCN)CC4)cc3)c(=O)[nH]c12 [Example 57, N-(4-({[1-(2-aminoethyl)piperidine-4-yl]methyl}carbamoyl)phenyl]-6-fluoro-8-(methylamino)-2-oxo-1,2-dihydroquinoline-3-carboxamide-dihydrochloride] | 3.62 nM | > 16 µg/mL | 
27 | CNc1cc(F)cc2cc(C(=O)NCCc3ccccc3)c(=O)[nH]c12 [Example 78, 6-fluoro-8-(methylamino)-2-oxo-N-(2-phenylethyl)-1,2-dihydroquinoline-3-carboxamide] |  |  | inhibition at 0.3 µM ([1]; Method 1, at 300 nM): 12%
28 | CNc1cc(F)cc2cc(C(=O)NCCc3ccccn3)c(=O)[nH]c12 [Example 79, 6-fluoro-8-(methylamino)-2-oxo-N-[2-(pyridine-2-yl)ethyl]-1,2-dihydroquinoline-3-carboxamide] | 175 nM |  | 
29 | Nc1cccc2cc(C(=O)Nc3cccc(C(=O)O)c3)c(=O)[nH]c12 [Example 165, 3-[(8-Amino-2-oxo-1,2-dihydroquinoline-3-carbonyl)amino]benzoic acid-trifluoroacetate] |  |  | inhibition at 50 µM ([1]; Method 1, at 50000 nM): 27%
